Measured values as given in US12593846B2, “Combinations of triazolone herbicides with safeners” (priority 2020, dated 2026).

Key:
Assay type in all cases: in vivo
[1] = system: Brachiaria decumbens; assay: % weed control in soybean crop, spray application to soil; design: concentration or dose not given beside the values; settings: average of 4 replications; for % Weed Control 7 DAA: 7 days after administration; for % Weed Control 14 DAA: 14 days after administration; for % Weed Control 21 DAA: 21 days after administration; for % Weed Control 28 DAA: 28 days after administration; for % Weed Control 35 DAA: 35 days after administration
Description: (§1) Below table gives summary of the formulation details and application details of Sulfentrazone and Mefenpyr-diethyl, Isoxadifen-ethyl and Cloquintocet-mexyl that were used in combination with Sulfentrazone for treatments. Application method was spray and applications were made to soil.
(§2) Below table gives summary of the formulation details and application details of Sulfentrazone and Dichlormid, Fenclorim, Benoxacor, Flurazole and Fluxofenim that were used in combination with Sulfentrazone for treatments. Application method was spray and applications were made to soil.
Below table gives summary of % weed control shown in soybean crop by untreated check, Sulfentrazone alone and combination of Sulfentrazone with Mefenpyr-diethyl, Isoxadifen-ethyl and Cloquintocet-mexyl at different application rates. % weed control was checked for weed Brachiaria decumbens.
Below table gives summary of % weed control in soybean crop shown by untreated check, Sulfentrazone alone and combination of Sulfentrazone with Dichlormid, Fenclorim, Benoxacor, Flurazole and Fluxofenim at different application rates. % weed control was checked for weed Brachiaria decumbens.

[2] = system: soybean plant; assay: Effect on plant height of soybean plant; settings: average of 4 replications; for Plant height 14 DAA: 14 days after administration; for Plant height 28 DAA: 28 days after administration
Procedure: (§3) Experiments were carried out to evaluate the phytotoxicity, effect on plant height and effect on number of plants standing after treatments with combinations of one or more triazolone herbicides with one or more safeners.
as §1, §2
Below table gives summary of effect on plant height of soybean plant shown by untreated check, Sulfentrazone alone and combination of Sulfentrazone with Mefenpyr-diethyl, Isoxadifen-ethyl and Cloquintocet-mexyl at different application rates.
Below table gives summary of effect on plant height of soybean plant shown by untreated check, Sulfentrazone alone and combination of Sulfentrazone with Dichlormid, Fenclorim, Benoxacor, Flurazole and Fluxofenim at different application rates.

[3] = system: soybean plants; assay: Number of soybean plants standing after herbicidal treatment; settings: average of 4 replications; for Number of plants standing 14 DAA: 14 days after administration; for Number of plants standing 28 DAA: 28 days after administration
Procedure: as §3, §1, §2
Below table gives summary of effect on number of soybean plants standing after herbicidal treatment shown by untreated check, Sulfentrazone alone and combination of Sulfentrazone with Mefenpyr-diethyl, Isoxadifen-ethyl and Cloquintocet-mexyl at different application rates.
Below table gives summary of effect on number of soybean plants standing after herbicidal treatment shown by untreated check, Sulfentrazone alone and combination of Sulfentrazone with Dichlormid, Fenclorim, Benoxacor, Flurazole and Fluxofenim at different application rates.

[4] = treatments 1-8 (rates in Table 1)
[5] = treatments 9-20 (rates in Table 2)

`Cc1nn(-c2cc(NS(C)(=O)=O)c(Cl)cc2Cl)c(=O)n1C(F)F` [Treatment 2] was tested, and the “% Weed Control 7 DAA” value [1, 4] was 100%, the “% Weed Control 14 DAA” value [1, 4] was 100% and the “% Weed Control 21 DAA” value [1, 4] was 100%. For the same molecule, the “% Weed Control 28 DAA” value [1, 4] was 100%, the “% Weed Control 35 DAA” value [1, 4] was 100% and the “Plant height 14 DAA” value [2, 4] was 2.90. For the same molecule, the “Plant height 28 DAA” value [2, 4] was 5.15, the “Number of plants standing 14 DAA” value [3, 4] was 5.3 and the “Number of plants standing 28 DAA” value [3, 4] was 4.5.
`Cc1nn(-c2cc(NS(C)(=O)=O)c(Cl)cc2Cl)c(=O)n1C(F)F` [Treatment 10] was tested, and the “% Weed Control 7 DAA” value [1, 5] was 100%, the “% Weed Control 14 DAA” value [1, 5] was 100% and the “% Weed Control 21 DAA” value [1, 5] was 100%. The “% Weed Control 28 DAA” value [1, 5] was 100%, the “% Weed Control 35 DAA” value [1, 5] was 100% and the “Plant height 14 DAA” value [2, 5] was 6.65. For the same molecule, the “Plant height 28 DAA” value [2, 5] was 10.90, the “Number of plants standing 14 DAA” value [3, 5] was 5.3 and the “Number of plants standing 28 DAA” value [3, 5] was 5.3.
